The source of these data is PubChem BioAssay (NCI).

Common to all, as to assay: NCI anticancer screen, dose series, 48 h
Assay [1] deals with SNB-75 CNS.
For assay [2], the system named is PC-3 prostate.
In assay [3] the test system is A549 NSCLC.
The test system of assay [4] is NCI-H23 lung.
The subject of assay [5] is IGROV1 ovarian.
For assay [6], the system named is OVCAR-4 ovarian.
Assay [7] relates to HL-60(TB) leukemia.
In assay [8] the test system is U251 CNS.
In assay [9] the test system is SN12C renal.
The test system of assay [10] is HT29 colon.

The structures appear in SMILES notation.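 96-well plates; 48 h exposure; 5 concentrations. Endpoints by linear interpolation between flanking doses. Not reached: highest tested concentration assigned. The concentration for 50% growth inhibition is given as GI50. TGI is the concentration that stops growth completely.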

Turning to `O=C1c2ccccc2-c2c1c1ccccc1c(=O)n2CCCNCCCn1c2c(c3ccccc3c1=O)C(=O)c1ccccc1-2`, the GI50 in [1] is 6.1 µM; in assay [2], 2.08 µM; in assay [3], 2.01 µM; in [4], 10.4 µM; in assay [5], 1.63 µM; in [6], 3.2 µM. The GI50 was over 50 µM in [7], 1.12 µM in assay [8], 3.4 µM in assay [9] and 0.997 µM in assay [10]. For the same compound, the TGI in assay [1] was over 50 µM; in assay [2] it was 5.52 µM; in [3] it was over 50 µM; in assay [4] it was over 29.7 µM; in assay [5], over 50 µM; in [6], 9.57 µM. The TGI in assay [7] was over 50 µM; in [8], 2.67 µM; in assay [9] it was 14.9 µM; in [10] it was over 50 µM.

On to `Cc1cc2c(c3c1c1ccccc1n3C)C(=O)C=CC2=O`, for which the TGI in [1] was over 100 µM; in [2] it was 36.3 µM; in [3] it was over 100 µM; in [4] it was 31 µM; in assay [5], over 78.2 µM; in [6], 30.6 µM. The TGI in [7] is 16 µM; in [8], 45.1 µM; in [9] it was over 82.7 µM; in assay [10], over 70.2 µM.
